Reference: PMC8355244, “A fragment-based approach identifies an allosteric pocket that impacts malate dehydrogenase activity” (Communications Biology, 2021)
“And” between values parts separate entries of the source, which are not always exact repeats. Equal entries are not always repeated.

Tests used:
PfMDH [1] = molecular target: T1, PfMDH (Plasmodium falciparum, UniProt Q6VVP7); test: Thermal shift assay (TSA); assay type: binding; settings: for TSA melting curve raw signal: triplicate columns; for TSA melting curve raw fluorescence signal: three replicate columns
T1 construct: The full-length WT PfMDH gene was cloned into pETM-13; made in house; host or cells: E. coli Rosetta 2 (DE3) pLysS
T1 sequence (Q6VVP7 entry or part of it): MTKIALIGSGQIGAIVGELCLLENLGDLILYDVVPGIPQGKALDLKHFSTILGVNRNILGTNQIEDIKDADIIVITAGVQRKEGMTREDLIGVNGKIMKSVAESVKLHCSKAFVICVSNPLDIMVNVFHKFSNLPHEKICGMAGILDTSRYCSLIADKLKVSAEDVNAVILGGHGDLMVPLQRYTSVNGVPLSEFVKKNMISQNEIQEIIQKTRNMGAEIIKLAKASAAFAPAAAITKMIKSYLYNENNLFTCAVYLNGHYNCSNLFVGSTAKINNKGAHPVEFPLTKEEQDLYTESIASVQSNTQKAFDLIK
Summary of the method: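 10 μM PfMDH with 1 mM compound in 100 mM Na–phosphate pH 7.4, 400 mM NaCl, 10× Sypro Orange; 1% DMSO controls. Melting inflection points taken as Tm; shifts >1 °C read as stabilization, negative shifts as destabilization.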

PfMDH [2] = molecular target: T1, PfMDH; test: Kinetics experiment with varying L-malate, substrate inhibition model; assay type: biochemical; set-up: unit not given here; settings: malate 5 mM, replicates
Experimental: The oxidation of malate to oxaloacetate was assayed spectrophotometrically in flat-bottomed Corning 96-well microplates in a total volume of 250.0 µl in 50 mM glycine buffer pH 10.2[24] with an additional 400 mM NaCl for protein stability. The increase of absorbance at 340 nm was recorded in kinetic mode using a Tecan Spark multimode microplate reader at 298 K. A mastermix of 50 mM NAD+ and 44 μM PfMDH was used for both the screening and kinetics experiments. The final concentration of protein and cofactor were […], respectively. Positive control groups were set (absence of compound) in the same plate as the treated group. The absorbance from the background noise was subtracted from the data and then a linear regression model was employed in order to get the line slope from the first 5 min of the reaction. The percentage of enzymatic activity has been calculated as described by Eq. (1)1 enzymeactivity(%)=slopetreated/slopepositivecontrol*100
Kinetics experiments were performed by mixing 1.3 µL of compound stock solutions from 12.5 and 25 mM of 4PA in 100% DMSO with 223.8 µL mastermix of PfMDH previously incubated in ice with 3 mM NAD+ for 30 min. […] Kinetic constants Km (mM) and Vmax (U * mg^−^1) and Ki (mM) were quantified with GraphPad Prism version 8.0 according to the substrate inhibition Eq. (2)[52].2 Y=Vmax*X/(Km+X^*(1+X/Ki))

Compound: Nc1nc(-c2ccccc2)cs1 [4PA, 4-phenylthiazol-2-amine]
- ΔTm at 1000 µM (PfMDH [1]; 1 mM compound vs DMSO control): -3 °C
- Tm (PfMDH [1]; 1 mM compound, 10 μM PfMDH, DMSO control Tm 58): 55.0 ± 0.2 °C
- TSA melting curve raw signal (PfMDH [1]; Temperature 25): 3101.562 and 3333.877 and 3419.875
- TSA melting curve raw signal (PfMDH [1]; Temperature 28.5): 2982.864 and 3197.483 and 3331.476
- TSA melting curve raw signal (PfMDH [1]; Temperature 29): 2965.133 and 3176.088 and 3316.215
- TSA melting curve raw signal (PfMDH [1]; Temperature 29.5): 2946.457 and 3153.433 and 3298.876
- TSA melting curve raw signal (PfMDH [1]; Temperature 30): 2926.726 and 3129.047 and 3278.959
- TSA melting curve raw signal (PfMDH [1]; Temperature 30.5): 2906.089 and 3103.354 and 3257.233
- TSA melting curve raw signal (PfMDH [1]; Temperature 31): 2885.408 and 3077.356 and 3234.634
- TSA melting curve raw signal (PfMDH [1]; Temperature 31.5): 2865.452 and 3051.863 and 3212.437
- TSA melting curve raw signal (PfMDH [1]; Temperature 32): 2847.461 and 3027.963 and 3192.183
- TSA melting curve raw signal (PfMDH [1]; Temperature 32.5): 2831.845 and 3007.388 and 3175.246
- TSA melting curve raw signal (PfMDH [1]; Temperature 33): 2819.491 and 2990.613 and 3162.466
- TSA melting curve raw signal (PfMDH [1]; Temperature 33.5): 2810.837 and 2978.017 and 3154.456
- TSA melting curve raw signal (PfMDH [1]; Temperature 34): 2806.172 and 2970.163 and 3151.8
- TSA melting curve raw signal (PfMDH [1]; Temperature 34.5): 2805.279 and 2966.904 and 3154.834
- TSA melting curve raw signal (PfMDH [1]; Temperature 35): 2808.767 and 2967.899 and 3163.624
- TSA melting curve raw signal (PfMDH [1]; Temperature 35.5): 2816.443 and 2973.639 and 3178.538
- TSA melting curve raw signal (PfMDH [1]; Temperature 36): 2828.317 and 2984.069 and 3199.383
- TSA melting curve raw signal (PfMDH [1]; Temperature 36.5): 2844.427 and 2998.946 and 3225.589
- TSA melting curve raw signal (PfMDH [1]; Temperature 37): 2864.693 and 3018.271 and 3256.517
- TSA melting curve raw signal (PfMDH [1]; Temperature 37.5): 2888.742 and 3042.246 and 3291.976
- TSA melting curve raw signal (PfMDH [1]; Temperature 38): 2916.555 and 3070.379 and 3330.731
- TSA melting curve raw signal (PfMDH [1]; Temperature 38.5): 2948.507 and 3102.617 and 3372.906
- TSA melting curve raw signal (PfMDH [1]; Temperature 39): 2984.548 and 3139.232 and 3418.523
- TSA melting curve raw signal (PfMDH [1]; Temperature 39.5): 3025.238 and 3180.62 and 3468.123
- TSA melting curve raw signal (PfMDH [1]; Temperature 40): 3070.846 and 3226.341 and 3521.558
- TSA melting curve raw signal (PfMDH [1]; Temperature 40.5): 3121.424 and 3276.836 and 3579.878
- TSA melting curve raw signal (PfMDH [1]; Temperature 41): 3176.735 and 3332.701 and 3643.235
- TSA melting curve raw signal (PfMDH [1]; Temperature 41.5): 3236.92 and 3394.066 and 3712.066
- TSA melting curve raw signal (PfMDH [1]; Temperature 42): 3301.878 and 3461.348 and 3786.574
- TSA melting curve raw signal (PfMDH [1]; Temperature 42.5): 3371.782 and 3535.427 and 3867.61
- TSA melting curve raw signal (PfMDH [1]; Temperature 43): 3446.967 and 3616.442 and 3955.318
- TSA melting curve raw signal (PfMDH [1]; Temperature 43.5): 3527.686 and 3704.688 and 4050.074
- TSA melting curve raw signal (PfMDH [1]; Temperature 44): 3614.17 and 3800.745 and 4152.165
- TSA melting curve raw signal (PfMDH [1]; Temperature 44.5): 3706.596
- TSA melting curve raw fluorescence signal (PfMDH [1]; Temperature 73.5): 6991.444 and 7655.524 and 7881.758
- TSA melting curve raw fluorescence signal (PfMDH [1]; Temperature 74): 6939.612 and 7600.258 and 7826.265
- TSA melting curve raw fluorescence signal (PfMDH [1]; Temperature 74.5): 6888.076 and 7546.666 and 7771.787
- TSA melting curve raw fluorescence signal (PfMDH [1]; Temperature 75): 6836.407 and 7493.684 and 7717.224
- TSA melting curve raw fluorescence signal (PfMDH [1]; Temperature 75.5): 6784.183 and 7441.52 and 7662.752
- TSA melting curve raw fluorescence signal (PfMDH [1]; Temperature 76): 6731.402 and 7389.749 and 7608.451
- TSA melting curve raw fluorescence signal (PfMDH [1]; Temperature 76.5): 6679.444 and 7337.884 and 7553.49
- TSA melting curve raw fluorescence signal (PfMDH [1]; Temperature 77): 6628.226 and 7285.068 and 7497.822
- TSA melting curve raw fluorescence signal (PfMDH [1]; Temperature 77.5): 6578.245 and 7231.451 and 7441.978
- TSA melting curve raw fluorescence signal (PfMDH [1]; Temperature 78): 6529.803 and 7176.607 and 7385.969
- TSA melting curve raw fluorescence signal (PfMDH [1]; Temperature 78.5): 6482.748 and 7121.157 and 7329.423
- TSA melting curve raw fluorescence signal (PfMDH [1]; Temperature 79): 6436.76 and 7065.937 and 7274.048
- TSA melting curve raw fluorescence signal (PfMDH [1]; Temperature 79.5): 6391.899 and 7012.239 and 7219.892
- TSA melting curve raw fluorescence signal (PfMDH [1]; Temperature 80): 6347.542 and 6960.087 and 7166.546
- TSA melting curve raw fluorescence signal (PfMDH [1]; Temperature 80.5): 6302.907 and 6909.426 and 7113.859
- TSA melting curve raw fluorescence signal (PfMDH [1]; Temperature 81): 6257.989 and 6859.788 and 7062.389
- TSA melting curve raw fluorescence signal (PfMDH [1]; Temperature 81.5): 6211.993 and 6810.814 and 7010.574
- TSA melting curve raw fluorescence signal (PfMDH [1]; Temperature 82): 6164.6 and 6762.251 and 6958.299
- TSA melting curve raw fluorescence signal (PfMDH [1]; Temperature 82.5): 6116.092 and 6712.951 and 6905.437
- TSA melting curve raw fluorescence signal (PfMDH [1]; Temperature 83): 6067.721 and 6663.14 and 6852.004
- TSA melting curve raw fluorescence signal (PfMDH [1]; Temperature 83.5): 6019.674 and 6612.874 and 6798.049
- TSA melting curve raw fluorescence signal (PfMDH [1]; Temperature 84): 5972.405 and 6562.27 and 6744.245
- TSA melting curve raw fluorescence signal (PfMDH [1]; Temperature 84.5): 5926.625 and 6510.347 and 6690.517
- TSA melting curve raw fluorescence signal (PfMDH [1]; Temperature 85): 5882.391 and 6459.307 and 6637.567
- TSA melting curve raw fluorescence signal (PfMDH [1]; Temperature 85.5): 5838.459 and 6409.022 and 6584.837
- TSA melting curve raw fluorescence signal (PfMDH [1]; Temperature 86): 5794.143 and 6359.5 and 6531.78
- TSA melting curve raw fluorescence signal (PfMDH [1]; Temperature 86.5): 5749.377 and 6310.687 and 6478.281
- TSA melting curve raw fluorescence signal (PfMDH [1]; Temperature 87): 5703.739 and 6263.164 and 6424.447
- TSA melting curve raw fluorescence signal (PfMDH [1]; Temperature 87.5): 5656.691 and 6215.001 and 6369.065
- TSA melting curve raw fluorescence signal (PfMDH [1]; Temperature 88): 5609.372 and 6165.882 and 6313.087
- TSA melting curve raw fluorescence signal (PfMDH [1]; Temperature 88.5): 5562.587 and 6115.522 and 6256.819
- TSA melting curve raw fluorescence signal (PfMDH [1]; Temperature 89): 5515.924 and 6063.705 and 6199.979
- TSA melting curve raw fluorescence signal (PfMDH [1]; Temperature 89.5): 5468.97 and 6010.228 and 6142.345
- TSA melting curve raw fluorescence signal (PfMDH [1]; Temperature 90): 5422.458
- 4PA kinetics raw data (rate) (PfMDH [2]; PfMDH + 63 uM): 0.0233 and 0.02526 and 0.02238
- 4PA kinetics raw data (rate) (PfMDH [2]; PfMDH + 125 uM): 0.01868 and 0.01853 and 0.02184
